Common to all, as to assay type: cell-based
One experiment deals with T1, human FLAG-tagged EP2 (Homo sapiens, UniProt P43116).
T1 construct: FLAG; expressed in transfected cells
In words: cAMP induction in HEK 293 cells stably expressing EP2 (Gαs readout). The note with it: for cAMP efficacy at the maximal dose of each ligand: HEK 293 EP2 cells, 5 minutes of stimulation, no significant difference between ligands, FIG. 2. As to the method: EP2 is a dually coupled GPCR capable of activating downstream signalling pathways via Gαs (anti-labour inducing) and Gαq/11 (pro-labour inducing).
HEK 293 cells were maintained in DMEM (Dulbecco's Modified Eagle Medium) containing 10% fetal bovine serum and 100 μ/ml penicillin-streptomycin, and cultured in 75 cm flasks at 37° C. in 95% air and 5% CO2. Cells at 95% confluency were passaged using 0.25% trypsin with 0.02% EDTA in phosphate-buffered saline (PBS).
Confluent myometrial cells were treated with/without OT (100 nM) for 1 hour before 3 PBS washes and the addition of […] IBMX (3-isobutyl-1-methylxanthine) in PBS for 5 minutes at 37° C. This was exchanged for 0.5 μM IBMX in PBS plus either DMSO, butaprost (10 μM), AH13205 (10 μM) or PGN9856i (100 nM) for […]. Cells were lysed in Cisbio cAMP lysis buffer with 0.2% TritonX-100 and centrifuged for 15 minutes at 16,000 g. Lysates were normalized to protein concentration determined by Coomassie (Bradford) Protein Assay Kit and analysed as per manufacturers' protocol (Cisbio Gαs dynamic assay) using a PHERAstar FSX.

Another experiment addresses T2, human FLAG-EP2 (Homo sapiens, UniProt P43116).
T2 construct: FLAG; expressed in transfected cells
In words: PGE2 release by ELISA in HEK 293 cells stably expressing EP2. The note with it: HEK 293 EP2 cells; 6 hours; butaprost 10 μM, AH13205 10 μM, PGN9856i 100 nM; FIG. 4. On the procedure: COX-2 is an inflammatory mediator that drives PGE2 production. The inventors had previously shown EP2-dependent COX-2 release to be downstream of Ca2+ release in primary human myometrium and that 6-hour agonist treatment is necessary for increasing COX-2 levels and PGE2 secretion (Kandola et al, 2014). HEK 293 cells stably expressing human FLAG-EP2 were stimulated for 6 hours with an EP2 agonist (butaprost 10 μM, AH13205 10 μM or PGN9856i 100 nM) or DMSO. 1 mL media was collected from COX-2 experiments and immediately frozen at −80 degrees Celsius. […]
A general note: In an ELISA, binding on a coated surface is turned into a signal by an enzyme label.

In experiment [1] the target is T3, EP2 (Homo sapiens, UniProt P43116).
T3 construct: primary human myocytes cultured from term pregnant, non-labouring, myometrium; endogenous in cells; host or cells: primary human myometrial cells (myocytes) cultured from pregnant myometrium
In words: PGE2 release in myometrial cells with/without oxytocin pre-treatment. Particulars: for effect of OT pre-treatment on ligand-induced PGE2 release: OT 1 hour, 100 nM, then ligand 6 hours, butaprost 10 μM, PGN9856i 100 nM, FIG. 12. As to the method:
Myometrial cells stimulated with either DMSO, butaprost (10 μM), AH13205 (10 μM) or PGN9856i (100 nM) for 6 hours, with/without OT pre-treatment (1 hour, 100 nM). Tissue culture media collected and used for ELISA. PGE2 concentrations normalised to butaprost. Data shown as mean±SEM from at least 3 independent experiments. One-way ANOVA with Dunnett's multiple comparison post-hoc test. One-sample t-test: *p<0.05.
Myometrial cells stimulated with DMSO or PGN9856i (100 nM) for 6 hours, with/without OT pre-treatment (1 hour, 100 nM). Tissue culture media collected and used for ELISA. PGE2 concentrations normalised to vehicle. Data shown as mean±SEM from at least 3 independent experiments. Unpaired t-test: *p<0.05.
Myometrial cells were treated for 6-hours with EP2 agonist (butaprost 10 μM, AH13205 10 μM or PGN9856i 100 nM) or DMSO with/without 1-hour OT (100 nM) pre-treatment. 1 mL media was collected from COX-2 experiments and immediately frozen at −80 degrees Celsius. Samples were defrosted at room temperature and vortexed before quantification of IL-6 concentrations via ELISA as per manufacturer's instructions (Enzo Lifesciences).

The target of experiment [2] is T3, EP2. In words: cAMP signalling in myometrial cells from different labouring groups, EP2 agonist. The note with it: butaprost 10 μM, FIG. 8. On the procedure: L=non-labouring, L+E=early stage spontaneous labour, L+L=late stage spontaneous labour, L+SE=early stage induced labour, L+SL=late stage induced labour. Myometrial cells from different labouring groups were treated with IBMX (5 minutes, 0.5 mM) before 1 minute stimulation with IBMX with/without butaprost (10 μM) or isoproterenol (10 μM). cAMP concentrations were normalised to protein. Data shown as mean±SEM, L−n=4. All other groups n=5. Each treatment compared to L− using one-way ANOVA with Dunnett's multiple comparison post-hoc test: **p<0.01, ***p<0.001, ****p<0.0001.
Myometrial tissue was acquired at St. Mary's hospital, Queen Charlotte and Chelsea hospital and Charing Cross hospital, London. Tissue was obtained from women provided with informed written consent with the approval from the Riverside Research Ethics Committee (RREC 3357, 1997-5089, 19/LO/1657) and experiments were carried out under the committee's guidelines and recommendations. Tissues were obtained from term (38+0-40 weeks gestation) pregnant women undergoing elective caesarean from the upper margin of the incision made at the lower segment of the uterus, before or after the onset of labor. Tissues taken from women in early labour (<3 cm cervical dilation) or late labour (>3 cm cervical dilation) with/without induction with syntocinon, an oxytocin analogue. Tissue was only taken from uncomplicated, singleton pregnancies.
Tissue was stored at 4° C. in phosphate buffered saline until fine dissection with scalpels and dissociation at 37° C. for 1 hour in a sterile-filtered mix of Dulbecco's modified Eagle's medium (DMEM) (Sigma Aldrich)/Ham's F-12 Nutrient Mixture (Sigma Aldrich) and serum-free DMEM (Sigma Aldrich) (1:1 v/v) containing collagenase 1A (Sigma Aldrich)(1 mg/ml), collagenase X (Sigma Aldrich)(1 mg/ml) and bovine serum albumin (Sigma Aldrich) (2 mg/ml). Dissociation was ended using DMEM 10% fetal bovine serum (Sigma Aldrich) and cell suspension was obtained using a 40-μm cell strainer before centrifugation at 3000 rpm for 5 minutes. […]

T1 sequence (P43116 whole entry): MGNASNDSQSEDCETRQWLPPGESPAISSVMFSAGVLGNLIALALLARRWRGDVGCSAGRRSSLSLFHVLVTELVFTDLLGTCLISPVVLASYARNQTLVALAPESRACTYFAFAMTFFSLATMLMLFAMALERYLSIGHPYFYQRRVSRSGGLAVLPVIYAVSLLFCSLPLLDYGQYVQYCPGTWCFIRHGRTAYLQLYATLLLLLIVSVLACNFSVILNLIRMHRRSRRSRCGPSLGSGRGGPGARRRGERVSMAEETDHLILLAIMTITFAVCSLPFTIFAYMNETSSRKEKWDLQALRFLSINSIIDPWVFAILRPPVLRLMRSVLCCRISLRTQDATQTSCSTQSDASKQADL
T3 sequence (P43116 whole entry): as above
T2 sequence (P43116 whole entry): as above

With `CC(C)OC(=O)COc1cccc(NC(=O)c2cc(-c3cccc(F)c3)ccc2F)c1` [PGN9856i, propan-2-yl 2-(3-{3′,4-difluoro-[1,1′-biphenyl]-3-amido}phenoxy)acetate], the “cAMP efficacy at the maximal dose of each ligand” value on human FLAG-tagged EP2 is “equally efficacious”. Moreover, on human FLAG-tagged EP2 (HEK 293 cells stably expressing human FLAG-tagged EP2, dose-response curves, FIG. 1), the “EC50 for EP2 agonist-mediated induction of cAMP (relative potency)” value is listed as “greatest potency, by three orders of magnitude”. At human FLAG-EP2, the PGE2 levels entry is “unable to increase PGE2 levels over basal levels”. Also, the “effect of OT pre-treatment on ligand-induced PGE2 release” value at EP2 [1] is given as “unchanged by OT pre-treatment”. Besides, at EP2 [1] (myometrial cells treated with OT (100 nM, 1 hour), then PGN9856i 100 nM for 6 hours, FIG. 13), the “effect on OT-mediated PGE2 release” value is given as “significantly reduce OT-mediated PGE2 release”.

With `CCCC1([C@H](O)C/C=C/[C@H]2[C@H](O)CC(=O)[C@@H]2CCCCCCC(=O)OC)CCC1` [butaprost], the “cAMP efficacy at the maximal dose of each ligand” value on human FLAG-tagged EP2 is “equally efficacious”. The PGE2 levels entry at human FLAG-EP2 is “efficacious activators of the pathway”. Further, at EP2 [2] (all labouring groups), the “agonist-induced cAMP signalling in labouring groups vs non-labouring” value is recorded as “significantly attenuated in all labouring groups”. Besides, the “reduction of agonist-stimulated cAMP, non-labouring vs spontaneous early labour” value at EP2 [2] (spontaneous early labour samples) is reported as 2.5 fold. The “reduction of agonist-stimulated cAMP, non-labouring vs spontaneous late labour” value on EP2 [2] (spontaneous late labour samples) was 10 fold. For the same compound, the “effect of OT pre-treatment on ligand-induced PGE2 release” value on EP2 [1] is given as “significantly increased by OT”.

(Values after US20230285347A1, “Preterm Labour with Prostaglandin E2 Receptor Agonists” (IMPERIAL COLLEGE INNOVATIONS LIMITED, priority 2020, published 2023).)
